Patent publication US9345703B2, “Kappa opioid receptor effectors and uses thereof” (University of Kansas, priority 2011, dated 2016)

Legend:
KOR [1] = molecular target: T1, KOR (Homo sapiens, UniProt P41145); test: High content imaging β-arrestin translocation assay, KOR antagonist (KOR HCS); type: cell-based
Description: (§1) In this campaign, two assay platforms were employed to evaluate KOR activity and selectivity: the KOR1 DISCOVERX β-Arrestin […] assay and an imaging based β-arrestin translocation assay for confirmatory and selectivity assays. The KOR1 DISCOVERX β-Arrestin […] assay is a commercial platform for direct measurement of GPCR (G protein-coupled receptor) activation by detection of β-Arrestin binding to the KOR. […] In cells that stably express these fusion proteins, ligand stimulation results in the recruitment of β-Arrestin by the GPCR. This interaction encourages the complementation of the two β-galactosidase fragments resulting in the formation of a functional enzyme that converts substrate in the assay medium to a detectable signal. The imaging based high-content β-arrestin translocation assay is based upon the redistribution of β-Arrestin linked to green fluorescent protein (GFP) to the cell surface and detection (Barak, et al. (1997) J. Biol. Chem. 272:27497-27500).
(§2) Initially, a portion (approximately 290,000 compounds) of the MLSMR compound collection was tested in the KOR1 DISCOVERX β-arrestin primary kappa opioid (KOP) agonist and antagonist screens (PUBCHEM AID 1777 and 1778, respectively) at a single concentration point (10 μM). […] These compounds were concurrently tested in a β-galactosidase counterscreen assay (PUBCHEM AID 1966) to assess the possibility that these compounds might inhibit the reporting enzyme. […] The KOR:DOR:MOR selectivity of the compounds was determined using the analogous β-arrestin translocation assays for the DOR (PUBCHEM AID 2370 and 2357, for agonists and antagonist, respectively) and the MOR (PUBCHEM AID 2352 and 2420, for agonists and antagonists, respectively).

KOR [2] = molecular target: T1, KOR; test: KOR1 DISCOVERX β-Arrestin […] assay, antagonist mode (KOR DRX); type: cell-based
Description: as §1, §2

DOR = DOR (Homo sapiens, UniProt P41143); test: High content imaging β-arrestin translocation assay, DOR antagonist (DOR HCS); type: cell-based; conditions: antagonist; average; read-out: Potency, Antitarget DOR HCS
Description: as §1, §2

KOR [3] = molecular target: T1, KOR; test: DISCOVERX β-arrestin […] assay, agonist mode (KOR DRx); type: cell-based; conditions: for EC50: agonist, n = 3, read-out: Average Potency KOR DRx; for Emax (%): at highest concentration tested, compared to dynorphin A (Emax=100%)
Description: as §1, with “signal.” for “signal. The imaging based high-content β-arrestin translocation assay is based upon the redistribution of β-Arrestin linked to green fluorescent protein (GFP) to the cell surface and detection (Barak, et al. (1997) J. Biol. Chem. 272:27497-27500).”

KOR [4] = molecular target: T1, KOR; test: Binding affinity Ki of Table 9
MOR [5] = molecular target: T2, MOR (Homo sapiens, UniProt P35372); test: High content imaging based β-arrestin translocation assay, MOR agonist (MOR HCS); type: cell-based; conditions: n = 2, read-out: Average Potency MOR HCS
Description: as §1, §2

KOR [6] = molecular target: T1, KOR; test: High content imaging based β-arrestin translocation assay, KOR agonist (KOR HCS); type: cell-based; conditions: n = 2, read-out: Average Potency KOR HCS
Description: as §1, §2

MOR [7] = molecular target: T2, MOR; test: High content imaging β-arrestin translocation assay, MOR antagonist (MOR HCS); type: cell-based; conditions: antagonist; average; read-out: Potency, Antitarget MOR HCS
Description: as §1, §2

[8] = antagonist, average, read-out: Potency, Target KOR HCS
[9] = antagonist, average, read-out: Potency, Target KOR DRX

T2 sequence (P35372 whole entry): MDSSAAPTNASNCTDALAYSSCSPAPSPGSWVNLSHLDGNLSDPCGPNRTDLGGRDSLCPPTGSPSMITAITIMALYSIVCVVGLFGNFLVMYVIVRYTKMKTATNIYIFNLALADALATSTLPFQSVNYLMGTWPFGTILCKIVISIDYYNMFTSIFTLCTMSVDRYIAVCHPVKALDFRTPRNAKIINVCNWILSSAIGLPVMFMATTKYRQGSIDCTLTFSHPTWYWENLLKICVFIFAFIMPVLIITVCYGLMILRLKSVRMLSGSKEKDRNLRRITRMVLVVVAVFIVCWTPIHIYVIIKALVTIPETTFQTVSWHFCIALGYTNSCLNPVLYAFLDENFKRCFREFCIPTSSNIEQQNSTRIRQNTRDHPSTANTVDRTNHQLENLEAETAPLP
T1 sequence (P41145 whole entry, the tested form may be a part): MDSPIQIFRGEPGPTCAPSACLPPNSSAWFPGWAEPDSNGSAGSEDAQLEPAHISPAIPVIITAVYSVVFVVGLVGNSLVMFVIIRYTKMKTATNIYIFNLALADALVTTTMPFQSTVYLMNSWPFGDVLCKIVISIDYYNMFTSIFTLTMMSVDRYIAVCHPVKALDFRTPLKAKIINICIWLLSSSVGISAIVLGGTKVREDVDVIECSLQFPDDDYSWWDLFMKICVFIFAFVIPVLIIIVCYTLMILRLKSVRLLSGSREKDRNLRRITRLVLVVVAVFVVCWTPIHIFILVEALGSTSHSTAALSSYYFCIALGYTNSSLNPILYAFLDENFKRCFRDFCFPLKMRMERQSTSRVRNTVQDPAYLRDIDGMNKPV
DOR, sequence (P41143 whole entry): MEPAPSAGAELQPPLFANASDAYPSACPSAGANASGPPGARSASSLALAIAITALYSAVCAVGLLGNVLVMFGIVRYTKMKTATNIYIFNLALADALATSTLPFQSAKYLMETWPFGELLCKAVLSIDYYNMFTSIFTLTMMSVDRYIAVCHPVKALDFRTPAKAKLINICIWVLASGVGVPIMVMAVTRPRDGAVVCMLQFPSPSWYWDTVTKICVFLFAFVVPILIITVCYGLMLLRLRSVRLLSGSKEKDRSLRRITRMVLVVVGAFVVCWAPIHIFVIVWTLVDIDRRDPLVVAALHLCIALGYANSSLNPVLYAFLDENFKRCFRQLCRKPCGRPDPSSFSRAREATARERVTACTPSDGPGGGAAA

Row | SMILES | IC50 (KOR [1]) [µM] | IC50 (KOR [2]) [µM] | IC50 (DOR) [µM] | EC50 (KOR [3]) [µM] | Emax (%) (KOR [3]) | Ki (KOR [4]) [µM] | EC50 (MOR [5]) [µM] | EC50 (KOR [6]) [µM] | IC50 (KOR [1]; [8]) [µM] | IC50 (MOR [7]) [µM] | IC50 (KOR [2]; [9]) [µM]
1 | Cc1cccc(N2CCN(CCNC(=O)Cn3c(=O)c4cccn4c4cccnc43)CC2)c1C [1{25}] | > 32 | > 20 | > 32 | – | – | – | – | – | – | – | –
2 | c1ccc(CSc2nnc(-c3ccccn3)n2Cc2ccco2)cc1 [Compound 2{22}] | – | – | – | > 17.9 | Emax not reached | 0.155 | > 32 | > 32 | – | – | –
3 | FC(F)(F)c1cc(CSc2nnc(-c3ccccn3)n2Cc2cccs2)ccc1Cl [Compound 2{11}] | – | – | – | 0.43 | ~109% | 0.003 | > 32 | 1.4 | – | – | –
4 | O=C(Cn1c(=O)c2cccn2c2cccnc21)NCCCN1CCCCC1 [Compound 1{21}] | – | – | > 32 | – | – | – | – | – | > 32 | > 32 | > 20
5 | Cc1ccccc1CSc1nnc(-c2ccccn2)n1Cc1ccco1 [Compound 2{35}] | – | – | – | > 18.8 | – | 0.123 | > 32 | > 30 | – | – | –
6 | COc1ccc(N2CCN(CCNC(=O)Cn3c(=O)c4cccn4c4c(C)ccnc43)CC2)cc1 [1{26}] | > 32 | – | > 32 | – | – | – | – | – | – | > 32 | –
7 | CC(C)c1ccc(CSc2nnc(-c3ccccn3)n2Cc2cccs2)cc1 [Compound 2{34}] | – | – | – | 3.66 | ~100% | 0.0023 | > 32 | 2.2 | – | – | –
8 | Clc1ccccc1CSc1nnc(-c2ccccn2)n1Cc1ccco1 [Compound 2{47}] | – | – | – | 9.07 | – | 0.106 | > 32 | 11.6 | – | – | –
9 | COc1ccc(N2CCN(CCCNC(=O)Cn3c(=O)c4cccn4c4ccccc43)CC2)cc1 [1{2}] | – | – | > 32 | – | – | – | – | – | 15.3 | > 32 | 4.32
10 | Cc1ccnc2c1n1cccc1c(=O)n2CC(=O)NCCCN1CCN(c2ccc3c(c2)OCO3)CC1 [1{5}] | – | – | > 32 | – | – | – | – | – | 0.045 | 17.2 | 0.43
11 | O=C(Cn1c(=O)c2cccn2c2cccnc21)NCCCN1CCN(c2ccccc2)CC1 [Compound 1{13}] | – | – | > 32 | – | – | – | – | – | 12.7 | > 32 | > 20
12 | COc1ccc(CSc2nnc(-c3ccccn3)n2Cc2ccco2)cc1 [Compound 2{20}] | – | – | – | 7.7 ± 1.47 | ~150% | 0.028 | > 32 | 12.4 | – | – | –
13 | O=C(Cn1c(=O)c2cccn2c2cccnc21)NCCCN1CCOCC1 [Compound 1{19}] | – | – | > 32 | – | – | – | – | – | > 32 | > 32 | > 20
14 | Cc1ccc(N2CCN(CCCNC(=O)Cn3c(=O)c4cccn4c4cccnc43)CC2)cc1 [1{12}] | – | – | > 32 | – | – | – | – | – | 0.89 | 18.8 | 3.68
15 | O=C(Cn1c(=O)c2cccn2c2cccnc21)NCCCN1CCN(Cc2ccccc2)CC1 [Compound 1{23}] | – | – | > 32 | – | – | – | – | – | 21.5 | > 32 | > 20
16 | Cc1ccnc2c1n1cccc1c(=O)n2CC(=O)NCCCN1CCN(c2ccc(Cl)cc2)CC1 [Compound 1{6}] | – | – | > 32 | – | – | – | – | – | 0.07 | > 32 | 0.69
17 | Cc1ccnc2c1n1cccc1c(=O)n2CC(=O)NCCCN1CCN(c2ccccc2)CC1 [1{8}] | – | – | > 32 | – | – | – | – | – | 2.56 | 22.5 | 4.95
18 | c1ccc(CSc2nnc(-c3ccccn3)n2Cc2cccs2)cc1 [Compound 2{23}] | – | – | – | 13.8 ± 1.18 | ~150% | 0.138 | > 32 | 23.5 | – | – | –
19 | Fc1cccc(F)c1CSc1nnc(-c2ccccn2)n1Cc1ccco1 [2{41}] | – | – | – | > 20 | – | 0.055 | > 32 | > 32 | – | – | –
